Patent publication US20080293771A1, “AZACYCLYLBENZAMIDE DERIVATIVES AS HISTAMINE-3 ANTAGONISTS” (Wyeth, priority 2007, published 2008)
Where a name gives a salt, the structure may show the parent alone.

Biological target: T1, Human Histamine H3 Receptor (Homo sapiens, UniProt Q9Y5N1)
T1 construct: expressed in transfected cells; host or cells: HEK293T (stably transfected; membrane preparation)
Assay: Methyl histamine binding in Human Histamine H3 Receptor Cell Line
Conditions: read-out: hH3 Binding Ki
Protocol: Evaluation of Methyl histamine binding in Human Histamine H3 Receptor Cell Line
The affinity of test compounds for the histamine 3 (H3) receptor is evaluated in the following manner. […] Cells are scraped from the plate, transferred to centrifuge tubes, washed one time in PBS by centrifugation in a Sorvall RT7 Plus centrifuge (2000 rpm 10 minutes, 4° C.). The resulting pellets are stored at −80° C. until ready for use. Cells are re-suspended in buffer (50 mM Tris pH=7.5) and placed in a Dounce homogenizer, douncing ten times to homogenize cells. The homogenate is spun down by centrifugation (Sorvall RT7 Plus, 1800 rpm 10 minutes, 4° C.). The supernatant is placed in a Corex tube and spun down by centrifugation (Sorvall RC 5c Plus, 17,000 rpm 20 minutes, 4° C.). The pellet is resuspended in buffer (50 mM Tris, pH 7.5). Protein concentration (ug/ul) is determined using the Micro-BCA Protein Determination. The binding assay is set up in a 96 well microtiter plate in a total volume of 250 uL. Non-specific binding is determined in the presence of 10 uM clobenpropit. The final radioligand concentration is 1 nM. The test compound is serially diluted using the Beckman Biomek2000 to a final approximate range of 100 uM to 100 pM. Membranes are suspended in buffer, homogenized in 2 bursts of ten seconds using a Vitris mechanical homogenizer set at power setting 5. Ten μg of membranes are added to each well. Following a one hour incubation at 30° C., the reaction is terminated by the addition of ice cold buffer and rapid filtration with a Packard Filtermate Harvester through a GF/B filter pre-soaked with 1% PEI for one hour. The plate is dried for one hour at 37° C. and 60 μL Microscint Scintillant is added to each well. The CPM per well is measured on a Packard Top Count NXT. Ki values are determined in nM. […] CPM values are expressed as % specific binding and plotted vs compound concentration. A curve is fitted using a four-parameter logistic fit and the IC50 value is determined. The Ki is calculated from this using the Cheng-Prusoff equation: […]=IC50/1+(L/Kd) where L=concentration of free radioligand used in the assay, and Kd is the dissociation constant of the radioligand for the receptor. L is determined for each experiment by counting an aliquot of the diluted radioligand (corresponding to that added to each well) and the Kd has previously been determined under identical conditions for this cell line/radioligand.

T1 sequence (Q9Y5N1 whole entry): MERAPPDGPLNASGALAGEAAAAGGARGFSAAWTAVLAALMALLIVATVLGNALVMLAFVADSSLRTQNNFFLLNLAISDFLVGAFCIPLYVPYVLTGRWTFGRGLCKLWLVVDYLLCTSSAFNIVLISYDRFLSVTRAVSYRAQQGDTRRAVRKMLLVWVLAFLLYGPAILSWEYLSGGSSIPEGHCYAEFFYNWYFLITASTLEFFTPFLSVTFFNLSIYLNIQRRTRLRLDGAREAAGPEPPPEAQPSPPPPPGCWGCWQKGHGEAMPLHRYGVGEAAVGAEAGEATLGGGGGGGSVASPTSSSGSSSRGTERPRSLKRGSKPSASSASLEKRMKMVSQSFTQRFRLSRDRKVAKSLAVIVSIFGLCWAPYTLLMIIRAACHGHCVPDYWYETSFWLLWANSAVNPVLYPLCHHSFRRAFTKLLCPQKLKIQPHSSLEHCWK

Compound | Ki [µM]
Cc1nc2ccccc2n1Cc1ccc(C(=O)N(C)C2CCNCC2)cc1 [Example 44, N-methyl-4-((2-methyl-1H-benzo[d]imidazol-1-yl)methyl)-N-(piperidin-4-yl)benzamide] | > 0.1
CN(C(=O)c1ccc(Cn2cnc3ccccc32)cc1)C1CCNCC1 [Example 45, 4-((1H-benzo[d]imidazol-1-yl)methyl)-n-methyl-N-(piperidin-4-yl)benzamide] | > 0.1
Cc1nc2cc(C#N)ccc2n1-c1ccc(C(=O)N(C)[C@@H]2CCNC2)cc1 [Example 53, (R)-4-(5-cyano-2-methyl-benzoimidazol-1-yl)-N-methyl-N-pyrrolidin-3-yl-benzamide] | > 0.1
CC(C)N1CCC(N(C)C(=O)c2ccc(Cn3cccn3)cc2)CC1 [Example 91, N-methyl-N-[1-(1-methylethyl)piperidin-4-yl]-4-(1H-pyrazol-1-ylmethyl)benzamide] | > 0.1
CN(C(=O)c1ccc(Cn2cccn2)cc1)C1CCN(C2CCC2)CC1 [Example 92, N-(1-cyclobutylpiperidin-4-yl)-N-methyl-4-(1H-pyrazol-1-ylmethyl)benzamide] | > 0.1
CN(C(=O)c1ccc(Cn2cccn2)cc1)C1CCN(C2CCCC2)CC1 [Example 93, N-(1-cyclopentylpiperidin-4-yl)-N-methyl-4-(1H-pyrazol-1-ylmethyl)benzamide] | > 0.1
Cc1nc2ccccc2n1-c1ccc(C(=O)N(C)C2CCN(C3CCCC3)CC2)cc1F [Example 120, N-(1-cyclopentylpiperidin-4-yl)-3-fluoro-N-methyl-4-(2-methyl-1H-benzimidazol-1-yl)benzamide] | 0.0101 to 0.05
Cc1nc2ccccc2n1-c1ccc(C(=O)N(C)C2CCN(C3CCCC3)CC2)c(Cl)c1 [Example 122, 2-chloro-N-(1-cyclopentylpiperidin-4-yl)-N-methyl-4-(2-methyl-1H-benzimidazol-1-yl)benzamide] | 0.0501 to 0.1
Cc1nc2ccccc2n1-c1ccc(C(=O)N[C@@H]2CCN(C3CCCCC3)C2)cc1 [Example 137, N-[(3R)-1-cyclohexylpyrrolidin-3-yl]-4-(2-methyl-1H-benzimidazol-1-yl)benzamide] | > 0.1
CCN(C(=O)c1ccc(-n2c(C)nc3ccccc32)cc1)[C@@H]1CCNC1 [Example 138, (R)—N-ethyl-4-(2-methyl-1H-benzo[d]imidazol-1-yl)-N-(pyrrolidin-3-yl)benzamide hydrochloride] | > 0.1
CCN(C(=O)c1ccc(-n2c(C)nc3ccccc32)cc1)[C@@H]1CCN(C2CCCCC2)C1 [Example 142, N-[(3R)-1-cyclohexylpyrrolidin-3-yl]-N-ethyl-4-(2-methyl-1H-benzimidazol-1-yl)benzamide] | > 0.1

Second part, the molecule after the results:

Ki [µM] | Compound
0.0101 to 0.05 | Cc1nc2ccccc2n1-c1ccc(C(=O)N(C)[C@@H]2CCN(C(C)C)C2)cc1F [Example 103, 3-fluoro-N-methyl-4-(2-methyl-1H-benzimidazol-1-yl)-N-[(3R)-1-(1-methylethyl)pyrrolidin-3-yl]benzamide]
0.0101 to 0.05 | Cc1nc2ccccc2n1-c1ccc(C(=O)N(C)[C@@H]2CCN(C3CCC3)C2)cc1F [Example 104, N-[(3R)-1-cyclobutylpyrrolidin-3-yl]-3-fluoro-N-methyl-4-(2-methyl-1H-benzimidazol-1-yl)benzamide]
0.0101 to 0.05 | Cc1nc2ccccc2n1-c1ccc(C(=O)N(C)[C@@H]2CCN(C(C)C)C2)c(Cl)c1 [Example 105, 2-chloro-N-methyl-4-(2-methyl-1H-benzimidazol-1-yl)-N-[(3R)-1-(1-methylethyl)pyrrolidin-3-yl]benzamide]
0.0101 to 0.05 | Cc1nc2ccccc2n1-c1ccc(C(=O)N(C)[C@@H]2CCN(C3CCC3)C2)c(Cl)c1 [Example 106, 2-chloro-N-[(3R)-1-cyclobutylpyrrolidin-3-yl]-N-methyl-4-(2-methyl-1H-benzimidazol-1-yl)benzamide]
≤ 0.01 | Cc1nc2ccccc2n1-c1ccc(C(=O)N(C)C2CCN(C(C)C)CC2)cc1F [Example 119, 3-fluoro-N-methyl-4-(2-methyl-1H-benzimidazol-1-yl)-N-[1-(1-methylethyl)piperidin-4-yl]benzamide]
≤ 0.01 | Cc1nc2ccccc2n1-c1ccc(C(=O)N(C)C2CCN(C(C)C)CC2)c(Cl)c1 [Example 121, 2-chloro-N-methyl-4-(2-methyl-1H-benzimidazol-1-yl)-N-[1-(1-methylethyl)piperidin-4-yl]benzamide]

System: not given
Assay: not given
Conditions: not given

melting point [°C] | Compound
196 to 198 | Cc1nc2ccccc2n1Cc1ccc(C(=O)N(C)C2CCNCC2)cc1 [Example 44, N-methyl-4-((2-methyl-1H-benzo[d]imidazol-1-yl)methyl)-N-(piperidin-4-yl)benzamide]
199 to 201 | CN(C(=O)c1ccc(Cn2cnc3ccccc32)cc1)C1CCNCC1 [Example 45, 4-((1H-benzo[d]imidazol-1-yl)methyl)-n-methyl-N-(piperidin-4-yl)benzamide]
178 to 180 | Cc1nc2cc(C#N)ccc2n1-c1ccc(C(=O)N(C)[C@@H]2CCNC2)cc1 [Example 53, (R)-4-(5-cyano-2-methyl-benzoimidazol-1-yl)-N-methyl-N-pyrrolidin-3-yl-benzamide]
